Measured values: patent publication US20200246352A1, “Vanadyl and vanadate for use in reducing stress-induced metabolic derangement” (CFM Pharma Holding B.V., priority 2017, published 2020)
Several values for one entry are separate records, joined by “and”; a condition that tells them apart may be missing. Equal values may be shown once.

Experiments:
healthy male Wistar rats [1] = test: Series 2: BMOV cumulative infusion during adrenaline (or saline) infusion, blood glucose; assay type: in vivo, rat
Experimental: Glucose levels were measured at t=0, 120, 140, 160, 180 and 200 min.
Blood glucose levels were measured at each time point in duplicates by directly dripping blood onto DCont TREND test strips (77 Elektronika, Budapest, Hungary). […] Blood samples were centrifuged at 4.000 rpm at 4° C. for 15 min. The prepared, separated samples derived from the centrifuged plasma (total volume 200 μl) were kept at −70° C. until shipment.

healthy male Wistar rats [2] = test: Example 2: BMOV pre-treatment before adrenaline-induced stress hyperglycemia, blood glucose; assay type: in vivo, rat
Experimental: See Table 8 and Table 9 for further details.
Measurement of glucose levels was performed by DCont TREND glucometer. DCont TREND test strips (77 Elektronika, http://www.regolymedical.hu/en/measuring-tools-and-surgicalinstruments/vercukormero-d-cont-trend.html), in duplicate in order to determine blood glucose levels. See Table 9 for the blood sampling regime during the course of the experiment.

[3] = Saline + BMOV group, 0 min, before saline and BMOV
[4] = Saline + BMOV group, 120 min of saline, before BMOV dose 1
[5] = Saline + BMOV group, 140 min, after BMOV 1 (0.34 mg/kg iv over 20 min)
[6] = Saline + BMOV group, 180 min, after BMOV 3 (2.89 mg/kg, cumulative)
[7] = Saline + BMOV group, 200 min, after BMOV 4 (8.50 mg/kg, cumulative)
[8] = Tonogen + BMOV group (adrenaline 1 μg/kg/min), 0 min, before adrenaline and BMOV
[9] = Tonogen + BMOV group, 120 min of adrenaline, before BMOV dose 1
[10] = Tonogen + 1x BMOV (15 mg/kg ip 3 h before adrenaline 0.3 microgram/kg/min), 0 min
[11] = Tonogen + 1x BMOV (15 mg/kg ip 3 h before adrenaline), 30 min
[12] = Tonogen + 1x BMOV (15 mg/kg ip 3 h before adrenaline), 60 min
[13] = Tonogen + 1x BMOV (15 mg/kg ip 3 h before adrenaline), 90 min
[14] = Tonogen + 1x BMOV (15 mg/kg ip 3 h before adrenaline), 120 min
[15] = Tonogen + 1x BMOV (15 mg/kg ip 3 h before adrenaline), 150 min
[16] = Tonogen + 1x BMOV (15 mg/kg ip 3 h before adrenaline), 180 min
[17] = Tonogen + 2x BMOV (15 mg/kg ip 16-24 h and 3 h before adrenaline 0.3 microgram/kg/min), 0 min
[18] = Tonogen + 2x BMOV (15 mg/kg ip 16-24 h and 3 h before adrenaline), 30 min
[19] = Tonogen + 2x BMOV (15 mg/kg ip 16-24 h and 3 h before adrenaline), 60 min
[20] = Tonogen + 2x BMOV (15 mg/kg ip 16-24 h and 3 h before adrenaline), 90 min
[21] = Tonogen + 2x BMOV (15 mg/kg ip 16-24 h and 3 h before adrenaline), 120 min
[22] = Tonogen + 2x BMOV (15 mg/kg ip 16-24 h and 3 h before adrenaline), 150 min
[23] = Tonogen + 2x BMOV (15 mg/kg ip 16-24 h and 3 h before adrenaline), 180 min
[24] = two doses of BMOV at different time points before stress

SMILES: Cc1occc(=O)c1[O-].Cc1occc(=O)c1[O-].[O]=[V+2] [BMOV, Bis(maltolato)oxovanadium]
- Effect on the increase of the glucose level (healthy male Wistar rats [1]; BMOV administered after the start of and during continued stress (adrenaline infusion)): lowers the extent of the increase of the glucose level
- Blood glucose level, individual animal in duplicate (healthy male Wistar rats [1]; [3]): 4.7 mM/l and 4.8 mM/l
- Blood glucose level, mean (healthy male Wistar rats [1]; [3]): 4.75 mM/l
- Blood glucose level, individual animal in duplicate (healthy male Wistar rats [1]; [4]): 5.7 mM/l and 5.3 mM/l
- Blood glucose level, mean (healthy male Wistar rats [1]; [4]): 5.50 mM/l
- Blood glucose level, individual animal in duplicate (healthy male Wistar rats [1]; [5]): 6.3 mM/l
- Blood glucose level, mean (healthy male Wistar rats [1]; [5]): 6.30 mM/l
- Blood glucose level, mean (healthy male Wistar rats [1]; Saline + BMOV group, 160 min, after BMOV 2 (1.02 mg/kg, cumulative)): 6.60 mM/l
- Blood glucose level, individual animal in duplicate (healthy male Wistar rats [1]; Saline + BMOV group, 160 min, after BMOV 2 (1.02 mg/kg, cumulative), 1.02 mg/kg): 6.5 mM/l and 6.7 mM/l
- Blood glucose level, individual animal in duplicate (healthy male Wistar rats [1]; [6]): 5.9 mM/l
- Blood glucose level, mean (healthy male Wistar rats [1]; [6]): 5.90 mM/l
- Blood glucose level, individual animal in duplicate (healthy male Wistar rats [1]; [7]): 3.8 mM/l
- Blood glucose level, mean (healthy male Wistar rats [1]; [7]): 3.80 mM/l
- Blood glucose level, individual animals in duplicate (healthy male Wistar rats [1]; [8]): 8.4 mM/l and 7.8 mM/l and 6.0 mM/l (2×)
- Blood glucose level, mean (healthy male Wistar rats [1]; [8]): 7.05 mM/l
- Blood glucose level, individual animals in duplicate (healthy male Wistar rats [1]; [9]): 16.4 mM/l and 16.5 mM/l and 11.7 mM/l and 11.2 mM/l
- Blood glucose level, mean (healthy male Wistar rats [1]; [9]): 13.95 mM/l
- Blood glucose level, mean (healthy male Wistar rats [1]; Tonogen + BMOV group, 140 min, after BMOV 1 (0.34 mg/kg iv over 20 min)): 15.55 mM/l
- Blood glucose level, individual animals in duplicate (healthy male Wistar rats [1]; Tonogen + BMOV group, 140 min, after BMOV 1 (0.34 mg/kg iv over 20 min), 0.34 mg/kg): 17.9 mM/l and 17.5 mM/l and 13.5 mM/l and 13.3 mM/l
- Blood glucose level, mean (healthy male Wistar rats [1]; Tonogen + BMOV group, 160 min, after BMOV 2 (1.02 mg/kg, cumulative)): 15.18 mM/l
- Blood glucose level, individual animals in duplicate (healthy male Wistar rats [1]; Tonogen + BMOV group, 160 min, after BMOV 2 (1.02 mg/kg, cumulative), 1.02 mg/kg): 14.6 mM/l and 14.5 mM/l and 15.7 mM/l and 15.9 mM/l
- Blood glucose level, mean (healthy male Wistar rats [1]; Tonogen + BMOV group, 180 min, after BMOV 3 (2.89 mg/kg, cumulative)): 11.03 mM/l
- Blood glucose level, individual animals in duplicate (healthy male Wistar rats [1]; Tonogen + BMOV group, 180 min, after BMOV 3 (2.89 mg/kg, cumulative), 2.89 mg/kg): 7.8 mM/l and 7.9 mM/l and 14.2 mM/l (2×)
- Blood glucose level, mean (healthy male Wistar rats [1]; Tonogen + BMOV group, 200 min, after BMOV 4 (8.50 mg/kg, cumulative)): 7.28 mM/l
- Blood glucose level, individual animals in duplicate (healthy male Wistar rats [1]; Tonogen + BMOV group, 200 min, after BMOV 4 (8.50 mg/kg, cumulative), 8.5 mg/kg): 4.3 mM/l and 4.4 mM/l and 10.1 mM/l and 10.3 mM/l
- Effect on hyperglycemia compared to adrenaline+vehicle control group (healthy male Wistar rats [1]; adrenaline 1 μg/kg/min, at 160-180 min): significantly decreased hyperglycemia
- Effect of pretreatment on occurrence of hyperglycemia (healthy male Wistar rats [2]; BMOV 3 h before stress, or at 16-24 h and 3 h before stress (adrenaline infusion)): surprisingly high reduction of the occurrence of hyperglycemia
- Blood glucose, individual animals in duplicate (healthy male Wistar rats [2]; [10]): 6.1 mM/l and 6.7 mM/l and 5.1 mM/l and 4.9 mM/l and 6.3 mM/l and 5.9 mM/l
- Blood glucose, mean (healthy male Wistar rats [2]; [10]): 5.833 mM/l
- Blood glucose, individual animals in duplicate (healthy male Wistar rats [2]; [11]): 6.9 mM/l (2×) and 5.1 mM/l and 5.9 mM/l and 7.5 mM/l and 7.2 mM/l
- Blood glucose, mean (healthy male Wistar rats [2]; [11]): 6.583 mM/l
- Blood glucose, individual animals in duplicate (healthy male Wistar rats [2]; [12]): 8.4 mM/l and 8 mM/l and 6 mM/l (2×) and 9.7 mM/l and 10 mM/l
- Blood glucose, mean (healthy male Wistar rats [2]; [12]): 8.017 mM/l
- Blood glucose, individual animals in duplicate (healthy male Wistar rats [2]; [13]): 9.4 mM/l and 9.2 mM/l and 9.8 mM/l and 9.7 mM/l and 8.6 mM/l and 9 mM/l
- Blood glucose, mean (healthy male Wistar rats [2]; [13]): 9.283 mM/l
- Blood glucose, individual animals in duplicate (healthy male Wistar rats [2]; [14]): 10.7 mM/l and 11.2 mM/l and 12.2 mM/l and 11.5 mM/l and 4.6 mM/l and 4.7 mM/l
- Blood glucose, mean (healthy male Wistar rats [2]; [14]): 9.15 mM/l
- Blood glucose, individual animals in duplicate (healthy male Wistar rats [2]; [15]): 12.3 mM/l and 12.6 mM/l and 11.7 mM/l and 11.6 mM/l
- Blood glucose, mean (healthy male Wistar rats [2]; [15]): 12.05 mM/l
- Blood glucose, individual animals in duplicate (healthy male Wistar rats [2]; [16]): 12.4 mM/l and 12.2 mM/l and 11.9 mM/l (2×)
- Blood glucose, mean (healthy male Wistar rats [2]; [16]): 12.1 mM/l
- Blood glucose, individual animals in duplicate (healthy male Wistar rats [2]; [17]): 5.2 mM/l (2×) and 5.4 mM/l and 4.4 mM/l and 4.3 mM/l and 5.1 mM/l and 5.8 mM/l and 4.8 mM/l
- Blood glucose, mean (healthy male Wistar rats [2]; [17]): 5.025 mM/l
- Blood glucose, individual animals in duplicate (healthy male Wistar rats [2]; [18]): 5.2 mM/l and 4.8 mM/l and 5 mM/l (2×) and 5.3 mM/l (2×) and 6.3 mM/l and 6.1 mM/l
- Blood glucose, mean (healthy male Wistar rats [2]; [18]): 5.375 mM/l
- Blood glucose, individual animals in duplicate (healthy male Wistar rats [2]; [19]): 5.2 mM/l and 4.4 mM/l and 4.3 mM/l and 6.3 mM/l and 6.4 mM/l and 7.1 mM/l and 7 mM/l and 5.3 mM/l
- Blood glucose, mean (healthy male Wistar rats [2]; [19]): 5.75 mM/l
- Blood glucose, individual animals in duplicate (healthy male Wistar rats [2]; [20]): 5.8 mM/l (2×) and 3.4 mM/l and 3.2 mM/l and 6.4 mM/l and 6.8 mM/l and 8.5 mM/l and 8.2 mM/l
- Blood glucose, mean (healthy male Wistar rats [2]; [20]): 6.0125 mM/l
- Blood glucose, individual animals in duplicate (healthy male Wistar rats [2]; [21]): 6.7 mM/l (2×) and 2.7 mM/l and 2.6 mM/l and 7.4 mM/l and 7.7 mM/l and 9.1 mM/l and 8.6 mM/l
- Blood glucose, mean (healthy male Wistar rats [2]; [21]): 6.4375 mM/l
- Blood glucose, individual animals in duplicate (healthy male Wistar rats [2]; [22]): 7.4 mM/l and 1.4 mM/l and 1.3 mM/l and 7.7 mM/l (2×) and 7.9 mM/l and 7.6 mM/l and 7.5 mM/l
- Blood glucose, mean (healthy male Wistar rats [2]; [22]): 6.0625 mM/l
- Blood glucose, individual animals in duplicate (healthy male Wistar rats [2]; [23]): 6.7 mM/l and 7 mM/l and 6.8 mM/l and 4.6 mM/l and 4.8 mM/l and 6.9 mM/l
- Blood glucose, mean (healthy male Wistar rats [2]; [23]): 6.133 mM/l
- Effect on occurrence of hyperglycemia during the period of stress (healthy male Wistar rats [2]; first dose 16 to 24 h and second dose 3 h prior to stress): inhibited the occurrence of hyperglycemia
- Effect on extent of hyperglycemia during the period of stress (healthy male Wistar rats [2]; single dose of BMOV 3 h prior to stress): reduced the extent of hyperglycemia considerably
- Maximum average glucose level in the blood (healthy male Wistar rats [2]; [24]): about 6.4 mmol/l
- Rise in blood glucose level (healthy male Wistar rats [2]; [24]): ≤ 28%
